From patent US20150359812A1, “PROPHYLACTIC/THERAPEUTIC AGENT FOR DRY EYE” (priority 2012, published 2015)

What was measured:
[1] = tested on: radical oxygen species in lacrimal gland tissue; assay: Inhibitory action to radical oxygen species using isolated lacrimal glands of mice (DCFH-DA fluorescence); format: cell-based; settings: for inhibition of radical oxygen in lacrimal cells, FIG. 12: comparison of delphinidin glycosides; for inhibition of radical oxygen by isolated delphinidin glycosides, FIG. 6: lacrimal gland cell suspension, DCFH-DA
Procedure: The action of the maqui berry extract to radical oxygen species in lacrimal gland tissue was evaluated using mice […].
The evaluation of the inhibitory action to radical oxygen species was done in the following way.
An isolated lacrimal gland was placed in a test tube, and 25 mg tissue/mL of cold phosphate-buffered saline (PBS) was added. After that, zirconia beads were added to the lacrimal gland that is to be crushed by a bead grinder. Then, 50 μL each of cell suspension was dispensed. Then, the maqui berry extract of Working Example 1 (1, 10 μg/mL) was added to the cell suspension, and then DCFH-DA solution as the radical oxygen series was added to make the final level of concentration at 75 μm. Then, after 60 minutes of incubation at 37 degrees Celsius, the cells were washed in PBS. The fluorescence-plate reader measured the intensity of fluorescence at (X485/528).
As a Comparative Example, the same test was done on lutein 10 μg/mL (compare and contrast).
Also, as a Comparative Example, the same test was done on the bilberry extract (Indena) and on the black currant extract (Tama Biochemical Co., Ltd.).
Furthermore, the same tests were done on the following examples.
Regarding Fr. 2: delphinidin-3,5-diglucoside (Working Example 3), Fr. 6: delphinidin-3-glucoside (Working Example 5) and delphinidin-3-rutinoside (Comparative Example 1: substance contained in cassis), the same evaluation as in Test Example 2 was done.
Regarding Fr. 6 delphinidin-3-glucoside (Working Example 5) and the other anthocyanin series (petunidin-3-glucoside, peonidin-3-glucoside, malvidin-3-glucoside and cyaniding-3-glucoside), the evaluation of Test Example 2 was done.

lacrimal cells = assay: Absorption test of anthocyanins into lacrimal cells (HPLC); format: in vitro ADME; settings: 100 μM, 30 minutes at 37 degrees Celsius, compared with D3G and D3R
Procedure: The test was done in the following way. Each anthocyanin (of delphinidin-3,5-diglucoside, delphinidin-3-O-glucoside and delphinidin-3-Orutinoside) was added to the lachrymal-cells suspension at the final concentration of 100 μM.
After that, the suspension was incubated for 30 minutes at 37 degrees Celsius. Then, the cells were washed and suspended again in the buffer. Thus, the amount of anthocyanin was analyzed by HPLC. The analysis is as follows.
The condition of HPLC is as follows:
Column: YMC UltraHT Pro C18 dia.2.0×100 mm
Column temperature: 30 degrees Celsius
Eluent: A=0.3% TFA aqueous solution, B=acetonitrile
Flow rate: 0.3 mL/min, Injection volume: 50 μL
Quantitative limit: 2 ng/mL (cyaniding-3-O-glucoside)

| SMILES | inhibition of radical oxygen in lacrimal cells, FIG. 12 [1] | inhibition of radical oxygen by isolated delphinidin glycosides, FIG. 6 [1] | action in inhibiting radical oxygen in lacrimal cells compared to other anthocyanins, FIG. 13 ([1]; comparison with petunidin-, peonidin-, malvidin- and cyanidin-3-glucoside) | amount of absorption of anthocyanin into the lacrimal cells, FIG. 14 (lacrimal cells) |
| --- | --- | --- | --- | --- |
| OC[C@H]1O[C@@H](Oc2cc3c(O)cc(O)cc3[o+]c2-c2cc(O)c(O)c(O)c2)[C@H](O)[C@@H](O)[C@@H]1O [Fr. 6, Delphinidin-3-glucoside] | inhibited | significantly inhibited |  |  |
| OC[C@H]1O[C@@H](Oc2cc3c(O)cc(O)cc3[o+]c2-c2cc(O)c(O)c(O)c2)[C@H](O[C@@H]2OC[C@@H](O)[C@H](O)[C@H]2O)[C@@H](O)[C@@H]1O [Fr. 5, Delphinidin-3-sambubioside] |  | significantly inhibited |  |  |
| OC[C@H]1O[C@@H](Oc2cc(O)cc3[o+]c(-c4cc(O)c(O)c(O)c4)c(O[C@@H]4O[C@H](CO)[C@@H](O)[C@H](O)[C@H]4O[C@@H]4OC[C@@H](O)[C@H](O)[C@H]4O)cc23)[C@H](O)[C@@H](O)[C@@H]1O [Fr. 1, Delphinidin-3sambubioside-5-glucoside] |  | significantly inhibited |  |  |
| CC1O[C@@H](OC[C@H]2OC(Oc3cc4c(O)cc(O)cc4[o+]c3-c3cc(O)c(O)c(O)c3)[C@H](O)C(O)C2O)C(O)C(O)[C@H]1O (stereo partly drawn) [delphinidin-3-rutinoside, reference compound] | did not inhibit |  |  |  |
| OC[C@H]1O[C@@H](Oc2cc3c(O[C@@H]4O[C@H](CO)[C@@H](O)[C@H](O)[C@H]4O)cc(O)cc3[o+]c2-c2cc(O)c(O)c(O)c2)[C@H](O)[C@@H](O)[C@@H]1O [Fr. 2, Delphinidin-3,5-diglucoside] | excellent inhibitory action | significantly inhibited | especially excellent action | absorbed by the lacrimal cells more |
